Source: US5066676A, “Sulfonamido derivative inhibiting the aldose reductase enzyme system and pharmaceutical compositions containing them” (Laboratori Baldacci SpA, priority 1987, dated 1991)

Key:
Acute toxicity: rat = conditions: in vivo, rat (Wistar), 20 ml/kg, read-out: % Death
Description: (§1) The toxicity tests after only one administration have been carried out on two animal species (mice and rats), using two administration routes (os, iv).
(§2) The compounds have been administered by gastric probe, suspended in Methocell or by injection (iv) dissolved in physiological solution with the addition of sodium bicarbonate.
(§3) The animals have been kept under observation for 15 days. The controls have been carried out several times in the first days and twice a day in the next days. In the table 1 the conditions used and the results obtained are reported.
Wistar rats, of both sexes have been used of average weight of 120 g, fasted after 18 hours and with water at libitum. The conditions of stalling and the administration ways were the same as those reported in the preceeding paragraph (acute toxicity: mouse).

Acute toxicity: mice = conditions: in vivo, mouse (Swiss), read-out: % Death
Procedure: as §1
For these tests Swiss mice have been used, of both sexes, having average weight 20 g, fasted after 18 hours and administered with water ad libitum. The animals were maintained under standard environment conditions (temperature: 20°-22° C. and moisture 50%).
as §2, §3

aldose reductase = molecular target: T1, aldose reductase (Bos taurus, UniProt P16116); assay: In vitro inhibition of aldose reductase activity of raw extracts from bovine crystalline lens; type: biochemical; conditions: glyceraldehyde substrate, NADPH, pH 6.8, 37° C.; read-out: IC50 on the aldose reductase activity of raw extracts originating from bovine crystalline lens
T1 construct: 4 bovine crystalline lenses (8 g) are homogenized by means of Potter in ice bath; from tissue; host or cells: bovine crystalline lens
Procedure: "In vitro" tests have been carried out to evalute the inhibition of the aldose reductase activity, prepared from the extract of bovine crystalline lenses.
PREPARATION OF THE RAW EXTRACTS
4 bovine crystalline lenses (8 g) are homogenized by means of Potter in ice bath with 40 ml of 50 mM phosphate buffer, pH 6.8, containing 2-mercaptoethanol pH ([…]). After centrifugation (12.000×g -20 min-4° C.) the supernatant is brought to 40% saturation with an ammonium sulphate and centrifugated again (14.000×g). The supernatant is then brought to the 80% saturation ((NH4)2 SO4) and, after centrifugation for 20 minutes and at 14.000×g, the sedimented matter is recovered and suspended in 7 ml of phosphate buffer. The enzymatic preparation is dialyzed by ultrafiltration with AMICON ultrafiltration cell.
DOSAGE OF THE ENZYMATIC ACTIVITY
The reference cuvette contains all the several substances apart from the substrate.

[1] = system: diabetic cataract in the rat; assay: Action on the appearance of the diabetic cataract (rat); type: in vivo; conditions: Table 7, 25 mg/kg/die per os
Procedure: (§4) With the compound bearing the abbreviation ARI 6 the following tests have been carried out in the rat and in the rabbit.
Action on the appearance of the diabetic cataract (rat).
Effects of the administration of ARI 6 (25 mg/kg/die, per os)
on the appearance of the diabetic cataract in the rat.
The values are expressed as percentages. Within brackets there are indicated the animals for each group.
Effects of the administration of ARI-1 (25 mg/kg/die, per os)

[2] = system: galactosemic cataract in the rat; assay: Action on the appearance of the galactosemic cataract (rat); type: in vivo
Procedure: as §4
Action on the appearance of the galactosemic cataract (rat)
Effects of the administration of ARI-6 (5 and 25 mg/kg/die, os)
on the appearance of the galactosemic cataract in the rat.
[…] In the brackets the number of animals for each group is indicated.
The diet contains D-galactose 50%.
Effects of the administration of ARI-1 (5 and 25 mg/kg/die, os)

[3] = day 10 from streptozotocine, * p < 0.05 vs controls
[4] = day 15 from streptozotocine, * p < 0.05 vs controls
[5] = day 20 from streptozotocine, * p < 0.05 vs controls
[6] = day 25 from streptozotocine, * p < 0.05 vs controls
[7] = day 30 from streptozotocine, * p < 0.05 vs controls
[8] = day 35 from streptozotocine, * p < 0.05 vs controls
[9] = day 40 from streptozotocine, * p < 0.05 vs controls
[10] = day 45 from streptozotocine, * p < 0.05 vs controls
[11] = day 50 from streptozotocine, * p < 0.05 vs controls
[12] = Table 6, 5 mg/kg/die os, day 5 of diet
[13] = Table 6, 5 mg/kg/die os, day 10 of diet, * p < 0.05 vs controls
[14] = Table 6, 5 mg/kg/die os, day 15 of diet, * p < 0.05 vs controls
[15] = Table 6, 5 mg/kg/die os, day 20 of diet, * p < 0.05 vs controls
[16] = Table 6, 5 mg/kg/die os, day 25 of diet, * p < 0.05 vs controls
[17] = Table 6, 5 mg/kg/die os, day 30 of diet, * p < 0.05 vs controls
[18] = Table 6, 5 mg/kg/die os, day 35 of diet, * p < 0.05 vs controls
[19] = Table 6, 5 mg/kg/die os, day 40 of diet, * p < 0.05 vs controls
[20] = Table 6, 5 mg/kg/die os, day 45 of diet, * p < 0.05 vs controls
[21] = Table 6, 5 mg/kg/die os, day 50 of diet
[22] = Table 6, 25 mg/kg/die os, day 5 of diet
[23] = Table 6, 25 mg/kg/die os, day 10 of diet, * p < 0.05 vs controls
[24] = Table 6, 25 mg/kg/die os, day 15 of diet, * p < 0.05 vs controls
[25] = Table 6, 25 mg/kg/die os, day 20 of diet, * p < 0.05 vs controls
[26] = Table 6, 25 mg/kg/die os, day 25 of diet, * p < 0.05 vs controls
[27] = Table 6, 25 mg/kg/die os, day 30 of diet, * p < 0.05 vs controls
[28] = Table 6, 25 mg/kg/die os, day 35 of diet, * p < 0.05 vs controls
[29] = Table 6, 25 mg/kg/die os, day 40 of diet, * p < 0.05 vs controls
[30] = Table 6, 25 mg/kg/die os, day 45 of diet, * p < 0.05 vs controls
[31] = Table 6, 25 mg/kg/die os, day 50 of diet

Cc1cc(C)c(S(=O)(=O)N(C)CC(=O)O)cc1S(=O)(=O)N(C)CC(=O)O [ARI 1, 4,6-dimethyl-1,3-bis (N-methyl-N-caboxymethl) sulfamoybenzene]
3/20: number of eyes with cataract on the total number of observed eyes [2, 16] | number of eyes with cataract on the total number of observed eyes [2, 29]
15.0%: percentage of eyes with cataract [2, 16] | percentage of eyes with cataract [2, 29]
4/20: number of eyes with cataract with respect the total number of observed eyes [1, 9] | number of eyes with cataract on the total number of observed eyes [2, 17]
0.0%: percentage of eyes with cataract ([1]; day 5 from streptozotocine) | percentage of eyes with cataract [1, 3] | percentage of eyes with cataract [1, 4] | percentage of eyes with cataract [1, 5] | percentage of eyes with cataract [1, 6] | percentage of eyes with cataract [1, 7] | percentage of eyes with cataract [1, 8] | percentage of eyes with cataract [2, 12] | percentage of eyes with cataract [2, 13] | percentage of eyes with cataract [2, 14] | percentage of eyes with cataract [2, 15] | percentage of eyes with cataract [2, 22] | percentage of eyes with cataract [2, 23] | percentage of eyes with cataract [2, 24] | percentage of eyes with cataract [2, 25] | percentage of eyes with cataract [2, 26] | percentage of eyes with cataract [2, 27] | percentage of eyes with cataract [2, 28]
5/20: number of eyes with cataract on the total number of observed eyes [2, 30]
40.0%: percentage of eyes with cataract [2, 18]
100.0%: percentage of eyes with cataract [1, 11] | percentage of eyes with cataract [2, 19] | percentage of eyes with cataract [2, 20] | percentage of eyes with cataract [2, 21] | percentage of eyes with cataract [2, 31]
6/20: number of eyes with cataract with respect the total number of observed eyes [1, 10]
0/20: number of eyes with cataract with respect the total number of observed eyes ([1]; day 5 from streptozotocine) | number of eyes with cataract with respect the total number of observed eyes [1, 3] | number of eyes with cataract with respect the total number of observed eyes [1, 4] | number of eyes with cataract with respect the total number of observed eyes [1, 5] | number of eyes with cataract with respect the total number of observed eyes [1, 6] | number of eyes with cataract with respect the total number of observed eyes [1, 7] | number of eyes with cataract with respect the total number of observed eyes [1, 8] | number of eyes with cataract on the total number of observed eyes [2, 12] | number of eyes with cataract on the total number of observed eyes [2, 13] | number of eyes with cataract on the total number of observed eyes [2, 14] | number of eyes with cataract on the total number of observed eyes [2, 15] | number of eyes with cataract on the total number of observed eyes [2, 22] | number of eyes with cataract on the total number of observed eyes [2, 23] | number of eyes with cataract on the total number of observed eyes [2, 24] | number of eyes with cataract on the total number of observed eyes [2, 25] | number of eyes with cataract on the total number of observed eyes [2, 26] | number of eyes with cataract on the total number of observed eyes [2, 27] | number of eyes with cataract on the total number of observed eyes [2, 28]
25.0%: percentage of eyes with cataract [2, 30]
3.6 µM: IC50 (aldose reductase)
30.0%: percentage of eyes with cataract [1, 10]
8/20: number of eyes with cataract on the total number of observed eyes [2, 18] | number of eyes with cataract on the total number of observed eyes [2, 19]
20.0%: percentage of eyes with cataract [1, 9] | percentage of eyes with cataract [2, 17]
20/20: number of eyes with cataract with respect the total number of observed eyes [1, 11] | number of eyes with cataract on the total number of observed eyes [2, 20] | number of eyes with cataract on the total number of observed eyes [2, 21] | number of eyes with cataract on the total number of observed eyes [2, 31]
0%: mortality at 360 h (Acute toxicity: rat; po, 5000 mg/kg/os) | mortality at 360 h (Acute toxicity: rat; 500 mg/kg/iv) | mortality at 360 h (Acute toxicity: mice; po, 5000 mg/kg/os) | mortality at 360 h (Acute toxicity: mice; 500 mg/kg/iv, 20 ml/kg)
